Tests used:
[1] = biological target: Casein kinase I isoform gamma-3 (Homo sapiens) (UniProt Q9Y6M4); assay: Inhibition of human CK1g3 at 18.6 nM by HotSpot assay relative to control
[2] = biological target: T1, Ephrin type-A receptor 3 (Homo sapiens) (UniProt P29320); assay: Inhibition of human EPHA3 at 18.6 nM by HotSpot assay relative to control
T1 sequence (whole entry): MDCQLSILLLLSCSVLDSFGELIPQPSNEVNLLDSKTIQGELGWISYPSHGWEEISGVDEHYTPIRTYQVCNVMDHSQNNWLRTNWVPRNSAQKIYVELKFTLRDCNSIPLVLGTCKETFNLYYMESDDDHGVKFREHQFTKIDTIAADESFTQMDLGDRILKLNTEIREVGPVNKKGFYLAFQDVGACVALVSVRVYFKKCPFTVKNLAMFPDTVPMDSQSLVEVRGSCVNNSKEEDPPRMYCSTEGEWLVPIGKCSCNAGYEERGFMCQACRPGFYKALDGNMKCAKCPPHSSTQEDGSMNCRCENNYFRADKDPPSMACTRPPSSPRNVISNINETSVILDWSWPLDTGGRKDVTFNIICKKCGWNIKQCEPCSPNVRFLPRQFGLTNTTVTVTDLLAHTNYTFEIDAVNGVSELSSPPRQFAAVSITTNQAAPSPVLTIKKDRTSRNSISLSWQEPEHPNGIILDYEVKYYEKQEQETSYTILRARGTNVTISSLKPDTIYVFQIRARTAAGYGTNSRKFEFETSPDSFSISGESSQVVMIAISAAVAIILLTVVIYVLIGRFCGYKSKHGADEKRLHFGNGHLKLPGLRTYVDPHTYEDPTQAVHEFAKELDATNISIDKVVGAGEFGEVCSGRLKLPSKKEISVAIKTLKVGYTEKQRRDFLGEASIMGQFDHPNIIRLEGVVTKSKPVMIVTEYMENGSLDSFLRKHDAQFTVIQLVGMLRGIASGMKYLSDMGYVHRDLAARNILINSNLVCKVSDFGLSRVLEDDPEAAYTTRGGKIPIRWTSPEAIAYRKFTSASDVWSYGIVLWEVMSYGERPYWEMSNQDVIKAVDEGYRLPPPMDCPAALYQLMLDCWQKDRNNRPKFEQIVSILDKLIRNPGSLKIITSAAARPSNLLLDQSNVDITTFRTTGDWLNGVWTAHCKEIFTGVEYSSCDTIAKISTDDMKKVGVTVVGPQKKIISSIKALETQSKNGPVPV

[3] = biological target: T2, Ephrin type-B receptor 2 (Homo sapiens) (UniProt P29323); assay: Inhibition of human EPHB2 at 18.6 nM by HotSpot assay relative to control
T2 sequence (whole entry): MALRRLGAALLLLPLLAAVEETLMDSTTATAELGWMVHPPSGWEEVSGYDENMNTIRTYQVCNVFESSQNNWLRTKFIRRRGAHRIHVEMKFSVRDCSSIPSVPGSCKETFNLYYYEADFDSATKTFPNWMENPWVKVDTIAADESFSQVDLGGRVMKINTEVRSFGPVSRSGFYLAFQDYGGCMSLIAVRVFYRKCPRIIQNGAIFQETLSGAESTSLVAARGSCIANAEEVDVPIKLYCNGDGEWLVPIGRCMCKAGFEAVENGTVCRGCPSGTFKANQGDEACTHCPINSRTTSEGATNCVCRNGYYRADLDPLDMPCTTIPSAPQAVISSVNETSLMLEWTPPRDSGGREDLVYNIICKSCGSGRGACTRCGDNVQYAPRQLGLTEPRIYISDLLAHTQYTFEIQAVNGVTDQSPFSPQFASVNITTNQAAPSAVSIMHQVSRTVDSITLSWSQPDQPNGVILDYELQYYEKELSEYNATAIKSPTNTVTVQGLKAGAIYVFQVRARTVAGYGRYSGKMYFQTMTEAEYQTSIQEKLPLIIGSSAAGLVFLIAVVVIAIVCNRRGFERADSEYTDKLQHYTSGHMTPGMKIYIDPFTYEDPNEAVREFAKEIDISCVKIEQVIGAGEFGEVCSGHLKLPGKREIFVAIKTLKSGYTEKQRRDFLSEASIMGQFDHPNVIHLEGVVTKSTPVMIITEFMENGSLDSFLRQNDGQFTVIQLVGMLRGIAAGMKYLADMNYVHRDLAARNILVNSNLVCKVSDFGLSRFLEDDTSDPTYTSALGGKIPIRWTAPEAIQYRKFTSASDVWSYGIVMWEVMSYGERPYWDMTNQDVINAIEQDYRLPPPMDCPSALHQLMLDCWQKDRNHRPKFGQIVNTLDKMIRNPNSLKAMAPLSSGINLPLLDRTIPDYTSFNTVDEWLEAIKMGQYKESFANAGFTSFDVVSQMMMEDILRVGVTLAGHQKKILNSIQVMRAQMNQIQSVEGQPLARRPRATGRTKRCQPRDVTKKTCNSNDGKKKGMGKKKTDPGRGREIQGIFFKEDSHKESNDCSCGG

[4] = biological target: Mitogen-activated protein kinase 3 (Homo sapiens) (UniProt P27361); assay: Inhibition of human ERK1 at 18.6 nM by HotSpot assay relative to control
Sequence of Mitogen-activated protein kinase 3 (Homo sapiens) (P27361 whole entry): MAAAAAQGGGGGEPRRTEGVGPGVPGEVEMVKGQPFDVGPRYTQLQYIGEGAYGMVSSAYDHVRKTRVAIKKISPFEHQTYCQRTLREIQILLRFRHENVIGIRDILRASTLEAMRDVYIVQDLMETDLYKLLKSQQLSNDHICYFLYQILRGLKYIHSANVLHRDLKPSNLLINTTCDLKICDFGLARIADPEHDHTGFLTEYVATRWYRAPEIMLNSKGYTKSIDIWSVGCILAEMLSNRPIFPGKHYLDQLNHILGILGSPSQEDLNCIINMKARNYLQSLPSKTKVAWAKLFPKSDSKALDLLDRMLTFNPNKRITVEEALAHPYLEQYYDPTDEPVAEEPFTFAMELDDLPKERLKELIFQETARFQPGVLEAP

[5] = biological target: Serine/threonine-protein kinase 10 (Homo sapiens) (UniProt O94804); assay: Inhibition of human LOK at 18.6 nM by HotSpot assay relative to control
[6] = biological target: Serine/threonine-protein kinase 24 (Homo sapiens) (UniProt Q9Y6E0); assay: Inhibition of human STK24 at 18.6 nM by HotSpot assay relative to control
[7] = biological target: Protein kinase C theta type (Homo sapiens) (UniProt Q04759); assay: Inhibition of human PKCtheta at 18.6 nM by HotSpot assay relative to control
Sequence of Protein kinase C theta type (Homo sapiens) (Q04759 whole entry, looked up): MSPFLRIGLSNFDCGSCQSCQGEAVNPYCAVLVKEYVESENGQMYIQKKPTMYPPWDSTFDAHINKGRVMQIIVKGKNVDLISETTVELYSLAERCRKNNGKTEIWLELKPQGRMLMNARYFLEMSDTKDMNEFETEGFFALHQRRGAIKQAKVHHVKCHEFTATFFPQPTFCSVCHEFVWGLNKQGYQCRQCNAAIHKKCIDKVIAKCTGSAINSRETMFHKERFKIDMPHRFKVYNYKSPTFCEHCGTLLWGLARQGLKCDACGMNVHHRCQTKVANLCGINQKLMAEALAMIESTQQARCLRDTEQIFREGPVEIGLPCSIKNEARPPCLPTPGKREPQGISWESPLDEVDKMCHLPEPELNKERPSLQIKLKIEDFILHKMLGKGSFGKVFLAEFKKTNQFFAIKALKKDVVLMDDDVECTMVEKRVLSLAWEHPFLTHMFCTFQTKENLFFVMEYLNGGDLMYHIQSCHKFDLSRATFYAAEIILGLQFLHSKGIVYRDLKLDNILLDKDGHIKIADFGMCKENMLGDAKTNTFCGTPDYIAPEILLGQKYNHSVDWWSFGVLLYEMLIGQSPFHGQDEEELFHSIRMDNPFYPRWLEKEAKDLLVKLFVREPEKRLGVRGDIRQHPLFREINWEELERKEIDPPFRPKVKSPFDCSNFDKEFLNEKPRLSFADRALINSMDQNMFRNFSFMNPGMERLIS

[8] = biological target: Death-associated protein kinase 2 (Homo sapiens) (UniProt Q9UIK4); assay: Inhibition of human DAPK2 at 1.82 nM by HotSpot assay relative to control
Sequence of Death-associated protein kinase 2 (Homo sapiens) (Q9UIK4 whole entry, looked up): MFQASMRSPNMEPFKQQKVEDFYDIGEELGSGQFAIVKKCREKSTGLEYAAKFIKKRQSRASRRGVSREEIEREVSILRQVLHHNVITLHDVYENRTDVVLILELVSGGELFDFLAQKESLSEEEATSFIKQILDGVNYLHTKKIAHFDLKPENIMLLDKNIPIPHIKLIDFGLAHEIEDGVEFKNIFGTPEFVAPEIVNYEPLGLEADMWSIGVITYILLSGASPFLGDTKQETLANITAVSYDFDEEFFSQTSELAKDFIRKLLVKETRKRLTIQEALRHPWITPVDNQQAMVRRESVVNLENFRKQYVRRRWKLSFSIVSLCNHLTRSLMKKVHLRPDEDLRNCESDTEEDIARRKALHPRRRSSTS

[9] = biological target: Dual specificity tyrosine-phosphorylation-regulated kinase 1A (Homo sapiens) (UniProt Q13627); assay: Inhibition of human DYRK1 at 1.82 nM by HotSpot assay relative to control
[10] = biological target: Leucine-rich repeat serine/threonine-protein kinase 2 (Homo sapiens) (UniProt Q5S007); assay: Inhibition of human LRRK2 at 1.82 nM by HotSpot assay relative to control
Sequence of Leucine-rich repeat serine/threonine-protein kinase 2 (Homo sapiens) (Q5S007 whole entry): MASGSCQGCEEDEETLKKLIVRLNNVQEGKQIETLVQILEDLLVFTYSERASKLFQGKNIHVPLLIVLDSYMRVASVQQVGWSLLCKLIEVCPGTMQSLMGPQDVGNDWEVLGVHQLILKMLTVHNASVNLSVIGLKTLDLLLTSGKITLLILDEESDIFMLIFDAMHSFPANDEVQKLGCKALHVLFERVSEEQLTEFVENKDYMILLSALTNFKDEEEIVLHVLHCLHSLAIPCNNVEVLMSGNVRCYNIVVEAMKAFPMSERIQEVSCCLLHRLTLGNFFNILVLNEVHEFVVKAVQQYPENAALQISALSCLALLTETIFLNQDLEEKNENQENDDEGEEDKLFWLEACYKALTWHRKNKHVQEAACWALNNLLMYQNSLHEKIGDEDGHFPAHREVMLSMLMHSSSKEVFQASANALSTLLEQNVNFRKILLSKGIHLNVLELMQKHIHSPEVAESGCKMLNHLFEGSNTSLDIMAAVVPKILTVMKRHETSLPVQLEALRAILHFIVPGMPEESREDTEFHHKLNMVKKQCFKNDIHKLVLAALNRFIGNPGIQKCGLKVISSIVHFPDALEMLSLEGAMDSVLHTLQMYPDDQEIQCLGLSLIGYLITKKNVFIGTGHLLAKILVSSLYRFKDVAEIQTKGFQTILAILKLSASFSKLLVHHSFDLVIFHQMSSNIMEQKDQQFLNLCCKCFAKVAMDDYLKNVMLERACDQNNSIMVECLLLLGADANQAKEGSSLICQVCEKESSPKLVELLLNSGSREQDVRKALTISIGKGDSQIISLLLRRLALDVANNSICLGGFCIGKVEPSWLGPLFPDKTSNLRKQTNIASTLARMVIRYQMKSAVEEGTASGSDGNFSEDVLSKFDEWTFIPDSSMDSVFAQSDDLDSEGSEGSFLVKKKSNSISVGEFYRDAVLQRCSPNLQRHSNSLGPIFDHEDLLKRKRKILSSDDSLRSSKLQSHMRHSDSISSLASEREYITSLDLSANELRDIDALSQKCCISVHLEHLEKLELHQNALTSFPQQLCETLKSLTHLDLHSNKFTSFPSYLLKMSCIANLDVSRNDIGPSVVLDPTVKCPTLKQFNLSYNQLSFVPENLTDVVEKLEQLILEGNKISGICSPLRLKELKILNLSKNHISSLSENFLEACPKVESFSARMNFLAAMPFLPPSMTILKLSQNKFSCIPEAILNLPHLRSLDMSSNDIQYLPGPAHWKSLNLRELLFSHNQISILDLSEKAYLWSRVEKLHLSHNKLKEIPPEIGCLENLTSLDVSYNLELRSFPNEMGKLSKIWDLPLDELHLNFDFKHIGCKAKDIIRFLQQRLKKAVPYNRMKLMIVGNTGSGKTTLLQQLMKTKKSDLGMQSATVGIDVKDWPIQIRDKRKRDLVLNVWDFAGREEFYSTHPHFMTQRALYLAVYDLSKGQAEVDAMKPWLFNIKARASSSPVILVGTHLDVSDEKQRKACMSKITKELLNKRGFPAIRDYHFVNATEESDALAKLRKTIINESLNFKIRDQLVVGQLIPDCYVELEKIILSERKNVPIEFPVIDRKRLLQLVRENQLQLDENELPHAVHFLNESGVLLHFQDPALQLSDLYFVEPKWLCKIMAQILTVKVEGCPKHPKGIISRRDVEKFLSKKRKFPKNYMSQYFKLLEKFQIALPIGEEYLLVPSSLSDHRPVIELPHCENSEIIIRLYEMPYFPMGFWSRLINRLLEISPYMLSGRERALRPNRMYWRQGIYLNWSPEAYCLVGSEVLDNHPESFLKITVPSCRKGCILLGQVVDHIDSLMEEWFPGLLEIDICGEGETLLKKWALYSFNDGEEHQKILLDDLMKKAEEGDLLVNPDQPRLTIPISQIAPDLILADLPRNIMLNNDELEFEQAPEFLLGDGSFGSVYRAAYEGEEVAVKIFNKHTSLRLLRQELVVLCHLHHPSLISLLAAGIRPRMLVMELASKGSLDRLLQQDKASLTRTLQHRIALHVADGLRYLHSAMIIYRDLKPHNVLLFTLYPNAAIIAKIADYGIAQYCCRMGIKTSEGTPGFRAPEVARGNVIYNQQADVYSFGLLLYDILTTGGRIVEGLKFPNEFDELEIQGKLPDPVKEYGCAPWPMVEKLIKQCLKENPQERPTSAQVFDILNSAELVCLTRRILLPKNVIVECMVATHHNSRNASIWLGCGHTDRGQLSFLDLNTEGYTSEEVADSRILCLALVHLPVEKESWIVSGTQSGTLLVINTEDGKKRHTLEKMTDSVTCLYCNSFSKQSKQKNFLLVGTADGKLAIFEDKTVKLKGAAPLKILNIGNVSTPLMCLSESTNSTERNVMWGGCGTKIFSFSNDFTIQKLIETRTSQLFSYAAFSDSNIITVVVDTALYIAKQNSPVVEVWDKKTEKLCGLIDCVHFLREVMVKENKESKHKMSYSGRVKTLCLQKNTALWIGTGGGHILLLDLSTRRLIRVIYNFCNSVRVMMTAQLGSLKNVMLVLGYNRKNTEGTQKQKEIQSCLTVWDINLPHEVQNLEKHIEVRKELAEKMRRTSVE

[11] = biological target: Mitogen-activated protein kinase kinase kinase 11 (Homo sapiens) (UniProt Q16584); assay: Inhibition of human MAP3K11 at 1.82 nM by HotSpot assay relative to control
Sequence of Mitogen-activated protein kinase kinase kinase 11 (Homo sapiens) (Q16584 whole entry, looked up): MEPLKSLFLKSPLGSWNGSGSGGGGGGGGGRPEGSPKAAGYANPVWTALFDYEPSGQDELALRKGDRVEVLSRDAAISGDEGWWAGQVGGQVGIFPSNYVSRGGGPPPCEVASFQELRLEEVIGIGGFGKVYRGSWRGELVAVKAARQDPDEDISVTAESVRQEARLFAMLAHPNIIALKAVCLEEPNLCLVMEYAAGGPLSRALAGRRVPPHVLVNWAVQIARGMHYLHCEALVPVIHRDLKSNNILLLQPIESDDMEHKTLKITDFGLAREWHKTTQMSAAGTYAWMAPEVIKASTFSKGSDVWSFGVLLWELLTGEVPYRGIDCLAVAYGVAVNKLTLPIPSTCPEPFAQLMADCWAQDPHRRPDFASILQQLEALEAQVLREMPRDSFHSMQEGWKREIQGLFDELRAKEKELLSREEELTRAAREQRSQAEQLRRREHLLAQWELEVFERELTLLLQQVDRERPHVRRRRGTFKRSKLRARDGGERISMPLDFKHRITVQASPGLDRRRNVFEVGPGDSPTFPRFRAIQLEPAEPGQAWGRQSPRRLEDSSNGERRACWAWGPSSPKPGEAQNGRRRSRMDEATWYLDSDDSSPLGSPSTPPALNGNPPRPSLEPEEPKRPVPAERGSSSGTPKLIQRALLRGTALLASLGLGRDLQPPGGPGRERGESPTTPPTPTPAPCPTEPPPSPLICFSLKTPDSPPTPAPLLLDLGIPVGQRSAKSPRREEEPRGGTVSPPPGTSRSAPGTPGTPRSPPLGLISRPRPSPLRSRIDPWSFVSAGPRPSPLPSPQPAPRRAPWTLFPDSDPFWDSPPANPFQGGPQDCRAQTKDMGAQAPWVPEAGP

[12] = biological target: Serine/threonine-protein kinase MRCK beta (Homo sapiens) (UniProt Q9Y5S2); assay: Inhibition of human CDC42BPB at 1.82 nM by HotSpot assay relative to control
[13] = biological target: RAF proto-oncogene serine/threonine-protein kinase (Homo sapiens) (UniProt P04049); assay: Inhibition of human RAF1 at 1.82 nM by HotSpot assay relative to control
[14] = biological target: STE20-like serine/threonine-protein kinase (Homo sapiens) (UniProt Q9H2G2); assay: Inhibition of human STK2 at 1.82 nM by HotSpot assay relative to control

**Q.** Which inhibition [1] does the source give for `C[C@]1(O)C[C@@H](c2nc(-c3ccc4ccc(-c5ccccc5)nc4c3)c3c(N)nccn32)C1` here?
**A.** 1.42%

**Q.** What about the inhibition [2] of the same molecule?
**A.** 2.95%

**Q.** And the inhibition [3]?
**A.** -7.65%

**Q.** And the inhibition [4]?
**A.** -9.66%

**Q.** And the inhibition [5]?
**A.** 9.09%

**Q.** What about the inhibition [6] of the same molecule?
**A.** 3.3%

**Q.** And the inhibition [7]?
**A.** -9.99%

**Q.** For `C[C@@]1(C(=O)Nc2ccc(F)nc2)CCCN1c1nc(Nc2cc(C3CC3)n[nH]2)c2cccn2n1`, which inhibition [8] is on record?
**A.** -1.36%

**Q.** And the inhibition [9]?
**A.** -3.18%

**Q.** What about the inhibition [10] of the same molecule?
**A.** -6.63%

**Q.** And the inhibition [11]?
**A.** 2.47%

**Q.** And the inhibition [12]?
**A.** -4.49%

**Q.** What about the inhibition [13] of the same molecule?
**A.** -9.08%

**Q.** What about the inhibition [14] of the same molecule?
**A.** 15.4%

— ChEMBL document CHEMBL5653615 (J Biol Chem, 2013)
